Experimental data reported in patent publication US11052072B2, “Pyrazolo[4,3-C] quinoline derivatives for inhibition of β-glucuronidase” (Kaohsiung Medical University, priority 2015, dated 2021).
“Also recorded” adds a separate entry of the source. Read-outs that look alike come from different tables or passages of the source.

Tests used:
[1] = molecular target: T1, human liver-glucuronidase (hβG) (Homo sapiens, UniProt P08236); experiment: Inhibition of purified recombinant hβG activity (pNPG substrate, OD420); format: biochemical; settings: read-out: Percent activity of human liver-glucuronidase at 10 μM (%)
T1 sequence (P08236 23-651): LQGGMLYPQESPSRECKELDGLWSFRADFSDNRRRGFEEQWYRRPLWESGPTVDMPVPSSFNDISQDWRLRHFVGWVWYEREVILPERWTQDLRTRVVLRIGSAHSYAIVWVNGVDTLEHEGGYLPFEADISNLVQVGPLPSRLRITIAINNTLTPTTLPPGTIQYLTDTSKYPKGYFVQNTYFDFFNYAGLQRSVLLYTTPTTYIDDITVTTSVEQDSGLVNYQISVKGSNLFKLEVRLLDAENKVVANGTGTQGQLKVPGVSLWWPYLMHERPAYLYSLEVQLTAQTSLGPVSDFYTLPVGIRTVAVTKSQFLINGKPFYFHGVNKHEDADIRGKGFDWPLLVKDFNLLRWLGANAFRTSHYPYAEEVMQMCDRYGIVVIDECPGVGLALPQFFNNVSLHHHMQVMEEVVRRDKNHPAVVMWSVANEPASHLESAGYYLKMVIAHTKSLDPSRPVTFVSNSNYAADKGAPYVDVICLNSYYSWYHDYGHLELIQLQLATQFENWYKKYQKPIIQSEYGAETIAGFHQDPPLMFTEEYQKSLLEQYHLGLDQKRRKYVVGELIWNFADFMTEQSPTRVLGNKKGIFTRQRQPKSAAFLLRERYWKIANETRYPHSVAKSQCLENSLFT
Procedure: (§1) The pyrazolo[4,3-c]quinoline derivatives were examined for their inhibition against eβG or hβG activity. Purified recombinant eβG or hβG proteins were incubated with serial dilution of the inhibitors, respectively. The βG activity was determined by color development of a βG substrate, pNPG. The hydrolysis product of pNPG, PNP was measured by OD420.

[2] = molecular target: E. coli β-glucuronidase (eβG) (Escherichia coli, UniProt P05804); experiment: Inhibition of purified recombinant eβG activity (pNPG substrate, OD420); format: biochemical; settings: for Inhibition efficacy of eβG activity compared with βG-Inh: FIG. 1; for remaining activity at 10 µM: read-out: Percent activity of E. coli-glucuronidase at 10 μM (%); for Selective inhibition of eβG versus hβG (in words): recombinant eβG and hβG, serial dilution of inhibitors (FIG. 1)
Procedure: as §1

endogenous eβG activity = molecular target: T2, endogenous eβG activity (Escherichia coli, UniProt P05804); experiment: Endogenous β-glucuronidase activity assay in BL21 E. coli cells; format: cell-based; settings: at both low (10 μM) or high concentration (50 μM) (FIG. 2)
T2 construct: endogenous in cells; host or cells: BL21 E. coli
Procedure: The pyrazolo[4,3-c]quinoline derivatives were examined for their inhibition against endogenous eβG activity. This assay is similar with the in vitro assay. BL21 E. coli cells were grown to an OD600 of 0.35 in LB medium. E. coli were 4 times diluted and incubated with each inhibitor. The endogenous eβG activity was measured by detecting PNP as described.

TOP10 E. coli cells = experiment: E. coli growth assay (OD600); format: cell-based; settings: 100 μM; OD600 at 6 hour after treatment; TOP10 E. coli (FIG. 4)
Procedure: The pyrazolo[4,3-c]quinoline derivatives were examined for effects on the growth of E. coli. TOP10 E. coli cells were grown to an OD600 of 0.35 in LB medium and treated with each inhibitor. E. coli cell cultures were monitored by reading OD600 at 6 hour after treatment. The cell viability were compared to non-inhibitor control group and shown in % control.

CPT-11 induced diarrhea = CPT-11 induced diarrhea in tumor-bearing mice; format: in vivo, Balb/cJ mice; settings: 3 mg/kg/day oral with CPT-11 50 mg/kg/day i.p.; CT26 tumor-bearing mice (FIG. 6A)
Procedure: (§2) FIGS. 6A and B show the effects of 17 (TCH-3511) on diarrhea and antitumor activity of CPT-11. Mice were inoculated with CT26 cells on day −7. Either water or 17 (TCH-3511) 3 mg/kg/day was orally administrated per day throughout the experimental period (day 0 onward). Mice were given daily intraperitoneal either CPT-11 treatment (50 mg/kg/day) or saline staring on day 2. Diarrhea level and tumor size was scored every other day.
(§3) 17 (TCH-3511) was given to mice to test whether inhibition of intestinal βG by bacterial inhibitor 17 (TCH-3511) eliminates CPT-11-induced diarrhea and maintain the therapeutic efficacy in combination with CPT-11 in tumor-bearing mice. CT26 murine colon adenocarcinoma cells were s.c. implanted into Balb/cJ mice. After solid tumor formed, 17 (TCH-3511) (3 mg/kg/day) was provided orally along with intraperitoneal injection of CPT-11 (50 mg/kg/day). Signs of diarrhea were according to stool forms and the perianal staining of the anus.

[3] = test system: CT26 murine colon adenocarcinoma cells; experiment: Anti-tumor efficacy of CPT-11 in CT26 tumor-bearing mice; format: in vivo, Balb/cJ mice; settings: 3 mg/kg/day oral with CPT-11 50 mg/kg/day i.p.; CT26 tumors (FIG. 6B)
Procedure: as §2, §3

intestinal βG activity = experiment: In vivo image of intestinal β-glucuronidase activity (FDGlcU pro-probe); parameters: species or system Balb/cJ mice; settings: mice; for Inhibition of intestinal βG activity (fluorescence signal in the intestine): oral 60 μg/200 μl per day for five days, FDGlcU on sixth day (FIG. 5A)
Procedure: 17 (TCH-3511) or 32 (TCH-3510) was examined for its inhibition against intestinal βG activity in mice by in vivo image of eβG activity. 5 (TCH-3562), 17 (TCH-3511) or 32 (TCH-3510) was dissolved in ddH2O. Healthy 6-10 week old female Balb/cJ mice were oral administrated with 5 (TCH-3562), 17 (TCH-3511), 32 (TCH-3510) or ddH2O per day (60 μg/200 μl) for five consecutive days. FDGlcU, a βG fluorescent pro-probe was oral feed at the sixth day. The βG activity was detected by in vivo optical imaging system.

[4] = test system: DMH induced tumorigenesis in the intestine; experiment: DMH induced tumorigenesis in the intestine; format: in vivo, C57BL/6J-APC^MIN/J mice
Procedure: Either water or 17 (TCH-3511) 3 mg/kg/day was orally administrated three times per week throughout the experimental period (8 week). Mice were given intraperitoneal DMH (30 mg/kg/week).
17 (TCH-3511) was given to C57BL/6J-APC^MIN/J mice to check whether prevent DMH-induced intestinal damage and tumorigenesis. 17 (TCH-3511) (3 mg/kg, 3 times/week) was provided orally along with intraperitoneal injection of DMH (30 mg/kg, once/week). After 8 weeks of treatment, mice were sacrificed and the tumor in the intestine was examined.

[5] = 10 μM, purified recombinant hβG, pNPG, means ± S.D. of at least three separate experiments

E. coli β-glucuronidase (eβG), sequence (P05804 whole entry): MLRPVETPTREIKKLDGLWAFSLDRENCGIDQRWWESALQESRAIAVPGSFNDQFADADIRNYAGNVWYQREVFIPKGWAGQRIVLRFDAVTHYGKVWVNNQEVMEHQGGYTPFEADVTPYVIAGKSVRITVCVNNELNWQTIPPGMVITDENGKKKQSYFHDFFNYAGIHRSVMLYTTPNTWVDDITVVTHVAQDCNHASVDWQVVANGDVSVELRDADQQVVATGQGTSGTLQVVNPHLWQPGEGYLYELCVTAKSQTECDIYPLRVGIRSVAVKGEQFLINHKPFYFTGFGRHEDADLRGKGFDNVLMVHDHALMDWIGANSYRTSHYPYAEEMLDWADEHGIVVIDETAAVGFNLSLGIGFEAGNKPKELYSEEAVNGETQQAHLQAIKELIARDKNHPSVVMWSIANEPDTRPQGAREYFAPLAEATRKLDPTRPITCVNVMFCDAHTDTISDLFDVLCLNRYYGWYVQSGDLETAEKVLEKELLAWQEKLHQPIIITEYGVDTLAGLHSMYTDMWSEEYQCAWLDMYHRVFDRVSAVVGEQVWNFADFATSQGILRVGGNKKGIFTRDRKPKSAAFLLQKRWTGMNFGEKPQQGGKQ
T2 sequence (P05804 whole entry): as above

Nc1n[nH]c2c1c(Nc1ccc(Cl)cc1)nc1ccccc12 [Compound 4, 3-Amino-4-(4-chlorophenylamino)-1H-pyrazolo[4,3-c]quinoline]
melting point: 246 to 248 °C | remaining activity at 10 µM [1, 5]: 113 ± 2.83% | Inhibition efficacy of eβG activity compared with βG-Inh [2]: better inhibition efficacy of eβG activity than βG-Inh | remaining activity at 10 µM [2]: 4.5 ± 0.71% | Selective inhibition of eβG versus hβG (in words) [2]: selectively inhibited eβG activity but not hβG | Inhibition efficacy of endogenous eβG activity compared with βG-Inh (endogenous eβG activity): better inhibition efficacy of endogenous eβG activity than βG-Inh

Cc1ccc(Nc2nc3ccccc3c3[nH]nc(N)c23)cc1 [Compound 5, 3-Amino-4-(4-methylphenylamino)-1H-pyrazolo[4,3-c]quinoline]
melting point: 292 to 294 °C | remaining activity at 10 µM [1, 5]: 110 ± 2.12% | Inhibition efficacy of eβG activity compared with βG-Inh [2]: better inhibition efficacy of eβG activity than βG-Inh | remaining activity at 10 µM [2]: 4.5 ± 0.71% | Selective inhibition of eβG versus hβG (in words) [2]: selectively inhibited eβG activity but not hβG | Effects on E. coli growth (TOP10 E. coli cells): no effects on E. coli growth | Inhibition efficacy of endogenous eβG activity compared with βG-Inh (endogenous eβG activity): better inhibition efficacy of endogenous eβG activity than βG-Inh

Nc1n[nH]c2c1c(Nc1ccc(F)cc1)nc1ccccc12 [Compound 17, 3-Amino-4-(4-fluorophenylamino)-1H-pyrazolo[4,3-c]quinoline]
Effect on CPT-11 induced diarrhea (CPT-11 induced diarrhea): can reduce CPT-11 induced diarrhea | melting point: 266 to 268 °C | remaining activity at 10 µM [1, 5]: 99 ± 1.41% | Effect on anti-tumor efficacy of CPT-11 treatment [3]: no effects on the anti-tumor efficacy of CPT-11 treatment | Inhibition efficacy of eβG activity compared with βG-Inh [2]: better inhibition efficacy of eβG activity than βG-Inh | remaining activity at 10 µM [2]: 5 ± 1% | Selective inhibition of eβG versus hβG (in words) [2]: selectively inhibited eβG activity but not hβG | Inhibition of intestinal βG activity, comparison between compounds (intestinal βG activity; in vivo optical imaging (FIG. 5B)): better than 32 (THC-3510) | Inhibition of intestinal βG activity (fluorescence signal in the intestine) (intestinal βG activity; listed as 17 (TCH-3511)): significantly reduced the fluorescence signal in the intestine; also recorded: significantly inhibit intestinal βG activity | Number of tumors in the intestine ([4]; 3 mg/kg oral 3 times/week with DMH 30 mg/kg i.p. once/week, after 8 weeks (FIG. 7), DMH only group more than 26): six | Effect on DMH-induced intestinal damage and tumorigenesis ([4]; 3 mg/kg oral 3 times/week with DMH 30 mg/kg/week i.p., 8 weeks (FIG. 7), listed as 17 (TCH-3511)): can reduce DMH-induced intestinal damage and prevent tumorigenesis | Effects on E. coli growth (TOP10 E. coli cells): no effects on E. coli growth | Inhibition efficacy of endogenous eβG activity compared with βG-Inh (endogenous eβG activity): better inhibition efficacy of endogenous eβG activity than βG-Inh

Nc1n[nH]c2c1c(Nc1ccccc1O)nc1ccccc12 [Compound 29, 3-Amino-4-(2-hydroxyphenylamino)-1H-pyrazolo[4,3-c]quinoline]
melting point: 156 to 157 °C | remaining activity at 10 µM [1, 5]: 104 ± 2.12% | remaining activity at 10 µM [2]: 7 ± 1%

Cc1ccccc1Nc1nc2ccccc2c2[nH]nc(N)c12 [Compound 30, N^4-(o-Tolyl)-1H-pyrazolo[4,3-c]quinoline-3,4-diamine]
melting point: 228 to 230 °C | remaining activity at 10 µM [1, 5]: 95.69 ± 0.01% | remaining activity at 10 µM [2]: 17 ± 2.1%

Nc1n[nH]c2c1c(Nc1ccccc1Cl)nc1ccccc12 [Compound 31, N^4-(2-Chlorophenyl)-1H-pyrazolo[4,3-c]quinoline-3,4-diamine]
melting point: 243 to 244 °C | remaining activity at 10 µM [1, 5]: 79.81 ± 0.01% | remaining activity at 10 µM [2]: 29.7 ± 3%

COc1ccccc1Nc1nc2ccccc2c2[nH]nc(N)c12 [Compound 32, 3-Amino-4-(2-methoxyphenylamino)-1H-pyrazolo[4,3-c]quinoline]
melting point: 210 to 211 °C | remaining activity at 10 µM [1]: 103 ± 1.41% | Inhibition efficacy of eβG activity compared with βG-Inh [2]: better inhibition efficacy of eβG activity than βG-Inh | remaining activity at 10 µM [2]: 3.5 ± 0.71% | Selective inhibition of eβG versus hβG (in words) [2]: selectively inhibited eβG activity but not hβG | Inhibition of intestinal βG activity (fluorescence signal in the intestine) (intestinal βG activity): significantly inhibit intestinal βG activity | Effects on E. coli growth (TOP10 E. coli cells): no effects on E. coli growth | Inhibition efficacy of endogenous eβG activity compared with βG-Inh (endogenous eβG activity): better inhibition efficacy of endogenous eβG activity than βG-Inh

COc1ccc(NC(=O)Nc2n[nH]c3c2c(=O)[nH]c2ccccc23)cc1 [Compound 35, 1-(4-Methoxyphenyl)-3-(4-oxo-4,5-dihydro-1H-pyrazolo[4,3-c]-quinolin-3-yl)urea]
melting point: 224 to 225 °C | remaining activity at 10 µM [1, 5]: 81.5 ± 0.71% | remaining activity at 10 µM [2]: 52 ± 4.24%

O=C(Nc1ccccc1)Nc1n[nH]c2c1c(Nc1ccc(Cl)cc1)nc1ccccc12 [Compound 36, 1-{4-[(4-Chlorophenyl)amino]-1H-pyrazolo[4,3-c]quinolin-3-yl}-3-phenylurea]
melting point: 282 to 283 °C | remaining activity at 10 µM [1, 5]: 83.1 ± 1.29% | remaining activity at 10 µM [2]: 4 ± 1%

Cc1ccc(Nc2nc3ccccc3c3[nH]nc(NC(=O)Nc4ccccc4)c23)cc1 [Compound 37, 1-Phenyl-3-[4-(p-tolylamino)-1H-pyrazolo[4,3-c]quinolin-3-yl]urea]
melting point: 212 to 213 °C | remaining activity at 10 µM [1, 5]: 82 ± 1.41% | remaining activity at 10 µM [2]: 3 ± 1%

COc1ccc(NC(=O)Nc2n[nH]c3c2c(Nc2ccc(Cl)cc2)nc2ccccc23)cc1 [Compound 38, 1-{4-[(4-Chlorophenyl)amino]-1H-pyrazolo[4,3-c]quinolin-3-yl}-3-(4-methoxyphenyl)urea]
melting point: 211 to 212 °C | remaining activity at 10 µM [1, 5]: 85.5 ± 0.71% | remaining activity at 10 µM [2]: 4 ± 1%

COc1ccc(NC(=O)Nc2n[nH]c3c2c(Nc2ccc(C)cc2)nc2ccccc23)cc1 [Compound 39, 1-(4-Methoxyphenyl)-3-[4-(p-tolylamino)-1H-pyrazolo[4,3-c]-quinolin-3-yl]urea]
melting point: 163 to 164 °C | remaining activity at 10 µM [1, 5]: 87.5 ± 2.12% | remaining activity at 10 µM [2]: 3.5 ± 0.71%
